Laboratory results as given in patent EP4541891A1, “NOVEL LRP1-BINDING PEPTIDE” (Ichimaru Pharcos Co., Ltd., priority 2022, dated 2025).
Bridge positions count the residues as written; N and C are the ends. Square brackets hold non-standard residues; d marks the D form. Ends that are not written are not given here. Peptide text beside a SMILES is read from it. * marks the point of attachment. 5FAM = O=C1OC2(c3ccc(O)cc3Oc3cc(O)ccc32)c2ccc(C(=O)*)cc21; Biotin = O=C1N[C@H]2[C@H](CS[C@H]2CCCCC(=O)*)N1; Nle = CCCC[C@H](N)C(=O)O

Legend:
[1] = test system: LRP1 cluster 4-Fc chimeric proteins; test: Competitive binding assay by ELISA against Sequence 46
Procedure: (§1) For comparison between the peptide of Sequence 1 with amino acid substitutions and the peptide of Sequence 2 in terms of the LRP1 binding activity and the resistance to protease degradation, a competitive binding assay by ELISA shown in FIG. 2 was constructed. Immediately (zero hour) or 24 hours after the mixing of the peptide of Sequence 2 or the amino acid-substituted peptide with mouse plasma at 37°C, the mixture was diluted to sufficiently lower the plasma concentration to any desired final concentration, and mixed with Sequence 46 (500 nM). This mixture was subjected to the competitive binding assay described above. The binding of Sequence 46 to the LRP1 cluster 4-Fc chimera proteins competes with the binding of Sequence 2 or the amino acid-substituted peptide to the LRP1 cluster 4-Fc chimera proteins, and thus is inhibited depending on the concentration of Sequence 2 or the amino acid-substituted peptide. That is, the binding activity of Sequence 2 or the amino acid-substituted peptide to the LRP1 cluster 4-Fc chimera proteins is detected as competitive inhibitory activity against the binding of Sequence 46. Regarding the binding value of Sequence 46 to the wells in which the LRP1 cluster 4-Fc chimeric proteins were not captured as 100% inhibitory activity and the binding value of Sequence 46 to the wells in which Sequence 2 or the amino acid-substituted peptide was not added as 0% inhibitory activity, the inhibitory activity values of Sequence 2 and the amino acid-substituted peptide were calculated in %.
Sequence 2 incubated with plasma for zero hour inhibited the binding of Sequence 46 in a concentration-dependent manner. […] However, the binding of Sequence 46 (500 nM) in wells loaded with 2,000 nM equivalent Sequence 2 averaged 50.6%.
Immediately or 24 hours after Sequences 1 to 44 were mixed with mouse plasma at 37°C, the mixtures were diluted to sufficiently lower the plasma concentration to a final concentration of 2,000 nM, and mixed with Sequence 46 (500 nM). The obtained mixtures were subjected to the above-described competitive binding assay. […] Other sequences tended to have diminished inhibitory activities.

[2] = Resistance to protease degradation in mouse plasma, read out by competitive binding ELISA; format: in vitro ADME; conditions: 37°C, inferred from loss of inhibitory activity
Procedure: as §1, with “The binding of Sequence 46 to the LRP1 cluster 4-Fc chimera proteins competes with the binding of Sequence 2 or the amino acid-substituted peptide to the LRP1 cluster 4-Fc chimera proteins, and thus is inhibited depending on the concentration of Sequence 2 or the amino acid-substituted peptide.” left out, “%. […]” for “%.”

[3] = test system: LRP1 cluster 3-Fc chimeric proteins; test: ELISA binding test of biotin-labeled peptides; conditions: biotinylated peptide 1,000 nM to 1.4 nM
Procedure: (§2) To evaluate the binding activity of the peptides to LRP1, an ELISA-based binding assay was constructed. The ELISA method will be briefly described below. First, a goat antihuman IgG-Fcγ polyclonal antibody (Catalog No. 109-0005-008, manufactured by Jackson Immuno Research) was added to a 96-well Maxisorp plate (Catalog No. 439454, manufactured by Nunc) at 1 µg/50 µL/well using D-PBS, followed by coating overnight at 4°C. Then, 0.5% BSA/D-PBS was further added at 300 µL/well, and blocking was carried out at room temperature for 30 minutes. After washing the plate with 0.1% Tween 20/D-PBS, LRP1 recombinant proteins, namely, LRP1 cluster 2-Fc chimeric proteins (Catalog No. 2368-L2-050, manufactured by R & D Systems), LRP1 cluster 3-Fc chimeric proteins (Catalog No. 48248-L3-050, manufactured by R & D Systems), or LRP1 cluster 4-Fc chimeric proteins (Catalog No. 5395-L4-050, manufactured by R & D Systems), were added at 100 ng/50 µL/well using 0.5% BSA/D-PBS, and allowed to react with the coated antibodies at room temperature for 30 minutes. After washing the plate with 0.1% Tween 20/PBS, Sequences 45 and 46, which were biotinylated peptides, were prepared at an arbitrary concentration using 0.5% BSA/D-PBS, and added at 50µL/well. After causing a reaction at room temperature for 30 minutes, the plate was washed with 0.1% Tween 20/D-PBS. Sequences 45 and 46 bound to the LRP1 recombinant proteins captured on the plate were detected with SA-HRP (Catalog No. ab7403, manufactured by Abeam). For quantification of HRP, TMB ELISA Substrate Solution (Catalog No. 34028, manufactured by Thermo Fisher) was used to measure absorbance at 450 nm.

[4] = test system: LRP1 cluster 4-Fc chimeric proteins; test: ELISA binding test of biotin-labeled peptides; conditions: for binding to the LRP1 cluster 4-Fc chimeric proteins: biotinylated peptide 1,000 nM to 1.4 nM; for EC50: biotinylated peptide, SA-HRP detection, absorbance at 450 nm, n = 4
Procedure: as §2

[5] = test system: LRP1 cluster 2-Fc chimeric proteins; test: ELISA binding test of biotin-labeled peptides; conditions: biotinylated peptide 1,000 nM to 1.4 nM
Procedure: as §2

[6] = target: LRP1 cluster 4-Fc chimeric proteins (UniProt Q07954); test: competitive ELISA, LRP1 cluster 4-Fc captured; peptide 2,000 nM against biotin-Sequence 46 500 nM
Chain of UniProt Q07954 (Q07954 3293-3783, stated change not applied): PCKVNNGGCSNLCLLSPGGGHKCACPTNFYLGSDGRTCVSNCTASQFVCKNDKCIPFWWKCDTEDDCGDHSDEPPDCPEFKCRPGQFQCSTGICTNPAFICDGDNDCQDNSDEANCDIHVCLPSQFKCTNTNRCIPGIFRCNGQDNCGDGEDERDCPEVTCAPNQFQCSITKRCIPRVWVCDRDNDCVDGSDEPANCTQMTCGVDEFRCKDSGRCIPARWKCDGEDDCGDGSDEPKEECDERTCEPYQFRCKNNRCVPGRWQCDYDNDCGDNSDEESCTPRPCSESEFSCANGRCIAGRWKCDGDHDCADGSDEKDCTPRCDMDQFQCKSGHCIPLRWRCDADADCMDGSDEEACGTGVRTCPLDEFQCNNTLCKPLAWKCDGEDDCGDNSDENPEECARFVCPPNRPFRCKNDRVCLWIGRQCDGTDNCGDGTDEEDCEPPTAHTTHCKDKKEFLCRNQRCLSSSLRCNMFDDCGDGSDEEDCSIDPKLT

[7] = target: LRP1 cluster 4-Fc chimeric proteins (UniProt Q07954); test: competitive ELISA, LRP1 cluster 4-Fc captured; Sequence 2 at 500 nM (zero hour in mouse plasma) against biotin-Sequence 46 500 nM
[8] = target: LRP1 cluster 4-Fc chimeric proteins (UniProt Q07954); test: competitive ELISA, LRP1 cluster 4-Fc captured; Sequence 2 at 2,000 nM equivalent after 24 h in mouse plasma at 37 C (about 75% degraded) against biotin-Sequence 46 500 nM

| Molecule | binding to the LRP1 cluster 3-Fc chimeric proteins [3] | binding to the LRP1 cluster 4-Fc chimeric proteins [4] | EC50 [4] [nM] | binding to the LRP1 cluster 2-Fc chimeric proteins [5] | other results |
| --- | --- | --- | --- | --- | --- |
| CCCC[C@@H]1NC(=O)[C@H](CCC(=O)O)NC(=O)[C@H](C)NC(=O)[C@H](CC(C)C)NC(=O)[C@H](CCCC)NC(=O)[C@H](Cc2ccc(O)cc2)NC(=O)[C@H](CCCCN)NC(=O)[C@H](Cc2ccc(O)cc2)NC(=O)[C@H]([C@@H](C)O)NC(=O)[C@@H](NC(=O)[C@@H]2CCCN2C(=O)[C@@H](NC(=O)CNC(=O)[C@H](CCCCNC(=O)c2ccc3c(c2)C(=O)OC32c3ccc(O)cc3Oc3cc(O)ccc32)NC(C)=O)[C@@H](C)O)CSSC[C@@H](C(=O)O)NC1=O [Sequence 2, Ac-Lys(5FAM)-Gly-Thr-Pro-c(Cys-Thr-Tyr-Lys-Tyr-Nle-Leu-Ala-Glu-Nle-Cys)-OH] (Ac-K(5FAM)GTPCTYKY[Nle]LAE[Nle]C-OH; disulfide 5-15) |  |  |  |  | inhibitory activity ([1]; peptide 2,000 nM versus Sequence 46 (500 nM), time point not stated): 79.4%; binding of Sequence 46 (500nM) ([1]; wells loaded with 2,000 nM equivalent Sequence 2, incubated with mouse plasma for 24 hours at 37°C, average): 50.6%; binding of Sequence 46 (500nM) ([1]; wells with 500 nM Sequence 2, incubated with mouse plasma for zero hour, n = 4, average): 52.4%; degraded during the 24-hour incubation with the mouse plasma [2]: approximately 75% |
| CCCC[C@@H]1NC(=O)[C@H](CCC(=O)O)NC(=O)[C@H](C)NC(=O)[C@H](CC(C)C)NC(=O)[C@H](CCCC)NC(=O)[C@H](Cc2ccc(O)cc2)NC(=O)[C@H](CCCCN)NC(=O)[C@H](Cc2ccc(O)cc2)NC(=O)[C@H]([C@@H](C)O)NC(=O)[C@@H](NC(=O)[C@@H]2CCCN2C(=O)[C@@H](NC(=O)CNC(=O)[C@H](CCCCNC(=O)CCCC[C@@H]2SC[C@@H]3NC(=O)N[C@@H]32)NC(C)=O)[C@@H](C)O)CSSC[C@@H](C(=O)O)NC1=O [Sequence 46, Ac-Lys(Biotin)-Gly-Thr-Pro-c(Cys-Thr-Tyr-Lys-Tyr-Nle-Leu-Ala-Glu-Nle-Cys)-OH] (Ac-K(Biotin)GTPCTYKY[Nle]LAE[Nle]C-OH; disulfide 5-15) | little or no binding | selectively and in a peptide concentration-dependent manner | 11 | little or no binding |  |
| Ac-K(Biotin)GTPCTYKY[Nle]LAE[Nle]C-OH (cysteine pairing not given here) [Sequence 45] | little or no binding | selectively and in a peptide concentration-dependent manner | 10.5 | little or no binding |  |
| Ac-K(5FAM)GTPCTYKY[Nle]LAE[Nle]C (disulfide 5-15) [SEQUENCE 2] |  |  |  |  | inhibitory activity (%) [6]: 79.4%; binding of Sequence 46 (%) in the presence of the peptide [7]: 52.4%; binding of Sequence 46 (%) in the presence of the peptide [8]: 50.6% |
